Results: patent US20250206751A1, “HETEROCYCLIC COMPOUND FOR INDUCING DEGRADATION OF G12D MUTANT KRAS PROTEIN” (Astellas Pharma Inc., priority 2022, published 2025)

Experiments:
[1] = tested on: human G12D mutant KRAS-positive pancreatic cancer line AsPC-1; assay: Non-anchorage-dependent cell growth inhibition, spheroid 3D cell culture (Test Example 3); assay type: cell-based; settings: Homo sapiens, ASPC1, 144 h, AsPC-1 spheroid 3D culture, 6 days, CellTiter Glo 2.0
Method: Test Example 3: Evaluation of Non-Anchorage-Dependent Cell Growth Inhibitory Effect on Human G12D Mutant KRAS-Positive Pancreatic Cancer Line AsPC-1
The non-anchorage-dependent cell growth inhibitory effect of test compounds was evaluated by spheroid 3D cell culture.
AsPC-1 cells were seeded on low-cell-adhesive round bottom 384-well plates (PrimeSurface: from Sumitomo Bakelite) at 36 μL/well to give 5×10^2 cells per well. As for the cell culture conditions, RPMI 1640 medium containing 10% fetal bovine serum was used in the presence of 5% CO2 at 37° C.
The next day, the test compounds (10 or 6 points having final concentrations in the range of 10 μM to 0.3 nM) and DMSO, which was the solvent for the test compounds, as a negative control were diluted 100-fold with a fresh medium and were added at 4 μL per well. After culturing in the presence of 5% CO2 at 37° C. for 6 days, CellTiter Glo 2.0 (from Promega) was added at 20 μL per well. After stirring with a plate mixer (from FINEPCR) at room temperature for 1 hour, the luminescent signals were measured with ARVO X3 (from PerkinElmer).
With the signaling value in treatment with DMSO taken as 100% and with the signaling value in the medium alone without cells taken as 0%, the 50% inhibitory concentration values (IC50) were calculated by Sigmoid-Emax nonlinear regression analysis.

[2] = target: T1, KRAS G12D protein (Homo sapiens, UniProt P01116, G12D); assay: KRAS degradation activity by Cell ELISA in AsPC-1 (Test Example 1); assay type: cell-based; settings: AsPC-1 cells, cultured overnight with compound, corrected with β-actin, read-out: DC50 (50% degradation concentration of the amounts of KRAS)
T1 construct: host or cells: AsPC-1
T1 sequence (P01116 1-188 isoform P01116-2 G12D): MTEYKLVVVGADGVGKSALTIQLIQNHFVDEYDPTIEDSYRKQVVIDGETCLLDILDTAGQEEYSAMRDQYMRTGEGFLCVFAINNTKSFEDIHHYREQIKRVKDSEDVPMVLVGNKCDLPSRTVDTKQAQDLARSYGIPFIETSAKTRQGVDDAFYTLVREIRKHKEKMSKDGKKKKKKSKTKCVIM
Method: Test Example 1: Evaluation of KRAS Degradation Activity on Human G12D Mutant KRAS-Positive Pancreatic Cancer Line AsPC-1 (CRL-1682; ATCC)
The KRAS degradation activity of test compounds was evaluated by measuring the expression levels of KRAS G12D protein by Cell ELISA.
AsPC-1 cells were seeded at 20 μL per well on 384-well plates (from Greiner bio-one) to give 2.0×10^4 cells per well. As for the cell culture conditions, RPMI 1640 (from Sigma-Aldrich) medium containing 10% fetal bovine serum (from Cytiva) was used in the presence of 5% CO2 at 37° C.
The next day, the test compounds (10 points having final concentrations in the range of 10 μM to 0.3 nM) and DMSO (from FUJIFILM Wako Pure Chemical Corporation), which was the solvent for the test compounds, as a negative control were diluted 500-fold with a fresh medium and were added at 20 μL per well. The cells were cultured overnight.
The next day, the culture supernatant was removed, and 4% paraformaldehyde phosphate buffer (from FUJIFILM Wako Pure Chemical Corporation) was added at 20 μL per well. The plates were allowed to stand for 30 minutes at room temperature to thus immobilize the cells. Then, the supernatant was removed, and 0.1% Triton X-100 (from Amersham Biosciences)-containing Phosphate buffered saline (PBS; from FUJIFILM Wako Pure Chemical Corporation) was added at 20 μL per well. After allowing to stand for 10 minutes at room temperature, the supernatant was removed. PBS was added at 25 μL per well, and the supernatant was removed to thus wash each well. The washing was performed twice in total. Next, the supernatant was removed, and 0.5% sodium dodecyl sulfate (SDS; from Invitrogen)-containing PBS was added at 20 μL per well. After allowing to stand at room temperature for 10 minutes, the supernatant was removed by a centrifugal operation (using a centrifugal dehydrator machine, the supernatant was removed by the same method hereinafter). PBS was added at 25 μL per well, and the supernatant was removed to thus wash each well. The washing was performed twice in total. The supernatant was removed, and blocking solution (Intercept Blocking Buffer; from Li-COR Biosciences) was added at 20 μL per well. After allowing to stand for 30 minutes at room temperature, the supernatant was removed, and a solution obtained by diluting anti-β-actin antibody (Anti-beta Actin antibody [mAbcam 8226]-Loading Control; from abcam) 1,000-fold with blocking solution and a solution obtained by diluting anti-Ras (G12D Mutant Specific) antibody (Ras (G12D Mutant Specific) (D8H7) Rabbit mAb #14429; from Cell Signaling Technology) and anti-β-actin antibody (from abcam) 1,000-fold with blocking solution were respectively added to positive control wells and the other wells at 20 μL per well as a primary antibody. The plate was allowed to stand overnight at 4° C.
The next day, the supernatant was removed. PBS was added at 25 μL per well, and the supernatant was removed to thus wash each well. The washing was performed twice in total. The supernatant was removed, and a solution obtained by diluting Donkey anti-Mouse IgG H&L (IRDye 680RD) (from Li-COR Biosciences) and Goat anti-Rabbit IgG H&L (IRDye 800CW) (from Li-COR Biosciences) 1,000-fold with blocking solution was added at 20 μL per well as a secondary antibody. After allowing to stand for 1 hour at room temperature, the supernatant was removed. PBS was added at 25 μL per well, and the supernatant was removed to thus wash each well. The washing was performed twice in total. After removing the supernatant, the plate was dried with air at room temperature for 2 hours or more, and the 700 nm and 800 nm fluorescent signals were measured with Aerius (from Li-COR Biosciences). […]

[3] = tested on: phosphorylation of threonine 202 (Thr202) and tyrosine 204 (Tyr204) of ERK; assay: ERK phosphorylation inhibitory effect by Cell ELISA in AsPC-1 (Test Example 2); assay type: cell-based, human; settings: Homo sapiens, ASPC1, AsPC-1 cells, cultured overnight with compound; 1 μM trametinib taken as 0%
Method: Test Example 2: Evaluation of ERK Phosphorylation Inhibitory Effect on Human G12D Mutant KRAS-Positive Pancreatic Cancer Line AsPC-1
The ERK phosphorylation inhibitory effect of test compounds was evaluated by measuring phosphorylation of threonine 202 (Thr202) and tyrosine 204 (Tyr204) of ERK located downstream of the KRAS signal by Cell ELISA.
AsPC-1 cells were seeded on 384-well plates at 36 μL/well to give 2.0×10^4 cells per well. As for the cell culture conditions, RPMI 1640 medium containing 10% fetal bovine serum was used in the presence of 5% CO2 at 37° C.
The next day, the test compounds (10 points having final concentrations in the range of 10 μM to 0.3 nM), trametinib (MEK inhibitor) of a final concentration of 1 μM as positive control and DMSO, which was the solvent for the test compounds, as negative control were diluted 100-fold with a fresh medium and were added at 4 μL per well. The cells were cultured overnight. After culturing, 30% glyoxal solution (40% glyoxal [from Nacalai Tesque] was diluted with PBS) was quickly added at 30 μL per well, and the plate was allowed to stand for 60 minutes at room temperature to thus immobilize the cells. Then, the plate was centrifuged to remove the supernatant (using a centrifugal dehydrator machine, the supernatant was removed by the same method hereinafter), and 0.1% Triton X-100-containing PBS was added at 20 μL per well. After allowing to stand for 10 minutes at room temperature, the supernatant was removed, and the same operation was further repeated. Next, 0.5% SDS-containing PBS was added at 20 μL per well, and after allowing to stand at room temperature for 30 minutes, the supernatant was removed. Subsequently, blocking solution (Intercept Blocking Buffer) was added at 20 μL per well, and the plate was allowed to stand for 1 hour at room temperature. The supernatant was removed, and an ERK (Thr202/Tyr204) phosphorylation antibody (Phospho-p44/42 MAPK (Erk 1/2) (Thr202/Tyr204) (D13.14.4E) XP Rabbit mAb; from Cell Signaling Technology) diluted 2,500-fold with blocking solution was added at 15 μL per well as a primary antibody. The plates were allowed to stand at 4° C. overnight.
The next day, the supernatant was removed. 0.05% Tween-20 (from Thermo Fisher Scientific)-containing PBS was added at 50 μL per well, and the supernatant was removed to thus wash each well. The washing was performed three times in total. After washing, Goat anti-Rabbit IgG H&L (IRDye 800CW) diluted 1,000-fold with blocking solution was added at 15 μL per well as a secondary antibody, and the plates were allowed to stand for 1 hour at room temperature. The supernatant was removed, and each well was washed three times with 0.05% Tween-20-containing PBS in the same manner as after the primary antibody reaction. After removing the supernatant, the plates were dried with air at room temperature for 3 hours or more, and the 800-nm fluorescent signals were measured with Aerius.
With the signaling value at the time of addition of DMSO taken as 100% and with the signaling value at the time of addition of 1 μM trametinib taken as 0%, the 50% inhibitory concentration values (IC50) were calculated by Sigmoid-Emax nonlinear regression analysis.

Structure (SMILES) | IC50 [1] | DC50 [2] | IC50 [3]
Cc1ncsc1-c1ccc([C@H](CO)NC(=O)[C@@H]2C[C@@H](O)CN2C(=O)[C@H](C(C)C)n2cc(-c3ccc(COc4c(-c5c(C)c(F)cc6[nH]ncc56)c(C5CC5)cc5c(OC6CNC6)nc(OC6CCOCC6)nc45)cc3)nn2)cc1 (atropisomer, axis not shown; (M)) [Example 2, (4R)-1-[(2S)-2-(4-{4-[({(7M)-4-[(azetidin-3-yl)oxy]-6-cyclopropyl-7-(6-fluoro-5-methyl-1H-indazol-4-yl)-2-[(oxan-4-yl)oxy]quinazolin-8-yl}oxy)methyl]phenyl}-1H-1,2,3-triazol-1-yl)-3-methylbutanoyl]-4-hydroxy-N-{(1R)-2-hydroxy-1-[4-(4-methyl-1,3-thiazol-5-yl)phenyl]ethyl}-L-prolinamide] | 92 nM | 20 nM | 9 nM
Cc1ncsc1-c1ccc([C@H](CO)NC(=O)[C@@H]2C[C@@H](O)CN2C(=O)[C@H](C(C)C)n2cc(-c3ccc(COc4c(-c5c(C)c(F)cc6[nH]ncc56)c(C5CC5)cc5c(N(C)[C@H]6CCNC6)nc(OCC(C)(F)F)nc45)cc3)nn2)cc1 (atropisomer, axis not shown) [Example 36] | 19 nM | 82 nM | 21 nM
Cc1ncsc1-c1ccc([C@H](CO)NC(=O)[C@@H]2C[C@@H](O)CN2C(=O)[C@H](C(C)C)n2cc(-c3ccc(COc4c(-c5c(C)c(F)cc6[nH]ncc56)c(C5CC5)nc5c(N6C[C@@H]7C[C@H]6CN7)nc(OC6CCOCC6)nc45)cc3)nn2)cc1 [Example 57, (4R)-1-[(2S)-2-(4-{4-[({6-cyclopropyl-4-[(1S,4S)-2,5-diazabicyclo[2.2.1]heptan-2-yl]-7-(6-fluoro-5-methyl-1H-indazol-4-yl)-2-[(oxan-4-yl)oxy]pyrido[3,2-d]pyrimidin-8-yl}oxy)methyl]phenyl}-1H-1,2,3-triazol-1-yl)-3-methylbutanoyl]-4-hydroxy-N-{(1R)-2-hydroxy-1-[4-(4-methyl-1,3-thiazol-5-yl)phenyl]ethyl}-L-prolinamide] | 95 nM | – | –
Cc1ncsc1-c1ccc([C@H](CO)NC(=O)[C@@H]2C[C@@H](O)CN2C(=O)[C@H](C(C)C)n2cc(-c3ccc(COc4c(-c5c(C)c(F)cc6[nH]ncc56)c(C5CC5)cc5c(N(C)[C@H]6CCNC6)nc(OCC(C)(C)F)nc45)cc3)nn2)cc1 (atropisomer, axis not shown) [Example 33] | 24 nM | 33 nM | 45 nM
CO[C@@H](C)COc1nc(N(C)[C@H]2CCNC2)c2cc(C3CC3)c(-c3c(C)c(F)cc4[nH]ncc34)c(OCc3ccc(-c4cn([C@H](C(=O)N5C[C@H](O)C[C@H]5C(=O)N[C@@H](CO)c5ccc(-c6scnc6C)cc5)C(C)C)nn4)c(F)c3)c2n1 (atropisomer, axis not shown; (M)) [Example 44] | 17 nM | 43 nM | 31 nM

These reach a lower IC50 [1]. Values come first.

IC50 [1] | DC50 [2] | IC50 [3] | Structure (SMILES)
15 nM | 26 nM | 22 nM | CO[C@@H](CF)COc1nc(N(C)[C@H]2CCNC2)c2cc(C3CC3)c(-c3c(C)c(F)cc4[nH]ncc34)c(OCc3ccc(-c4cn([C@H](C(=O)N5C[C@H](O)C[C@H]5C(=O)N[C@@H](CO)c5ccc(-c6scnc6C)cc5)C(C)C)nn4)cc3)c2n1 (atropisomer, axis not shown) [Example 47]
6 nM | 47 nM | 7 nM | CO[C@@H](C)COc1nc(N(C)[C@H]2CCNC2)c2cc(C3CC3)c(-c3c(C)c(F)cc4[nH]ncc34)c(OCc3ccc(-c4cn([C@H](C(=O)N5C[C@H](O)C[C@H]5C(=O)N[C@@H](CO)c5ccc(-n6cncn6)cc5)C(C)C)nn4)cc3)c2n1 (atropisomer, axis not shown) [Example 40]
5 nM | 47 nM | 5 nM | Cc1ncoc1-c1ccc([C@H](CO)NC(=O)[C@@H]2C[C@@H](O)CN2C(=O)[C@H](C(C)C)n2cc(-c3ccc(COc4c(-c5c(C)c(F)cc6[nH]ncc56)c(C5CC5)cc5c(N(C)[C@H]6CCNC6)nc(OC[C@@H]6CCCO6)nc45)cc3)nn2)cc1 (atropisomer, axis not shown) [Example 28]
4 nM | 20 nM | 4 nM | CO[C@@H](C)COc1nc(N(C)[C@H]2CCNC2)c2cc(C3CC3)c(-c3c(C)c(F)cc4[nH]ncc34)c(OCc3ccc(-c4cn([C@H](C(=O)N5C[C@H](O)C[C@H]5C(=O)N[C@@H](CO)c5ccc(-c6ocnc6C)cc5)C(C)C)nn4)cc3)c2n1 (atropisomer, axis not shown) [Example 14]
